# Measured values taken from PubChem BioAssay AID2060341 (Molecular Pharmacology Branch, DTP, NCI, 2025).
# Several values for one entry are separate records, joined by “and”; a condition that tells them apart may be missing. Equal values may be shown once.
# Tested on: 327498-153-R-J2-PDC multicell spheroid viability
# Experiment: Anticancer human tumor 327498-153-R-J2-PDC patient-derived uterine carcinosarcoma cell line growth inhibition [IpAb]
# Conditions: for viability, T/C: stronger effect = lower value
# Summary of the method: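 Spheroids of 60% malignant cells, 25% HUVEC and 15% MSC were exposed to targeted agents combined with ipatasertib or abemaciclib. Doses started at or near clinical Cmax (10 microM when unknown) and fell in half-log steps.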
# [1] = curve of first compound, second compound 0.1 µM
# [2] = curve of first compound, second compound 0.316 µM
# [3] = curve of first compound, second compound 1 µM
# [4] = curve of first compound, second compound 0.01 µM
# [5] = curve of first compound, second compound 0.0316 µM
# [6] = second compound 0.01 µM, first compound 0.0316 µM
# [7] = second compound 0.01 µM, first compound 0.1 µM
# [8] = second compound 0.01 µM, first compound 0.316 µM
# [9] = second compound 0.01 µM, first compound 1 µM
# [10] = second compound 0.01 µM, first compound 3.16 µM
# [11] = second compound 0.01 µM, first compound 10 µM
# [12] = second compound 0.0316 µM, first compound 0.0316 µM
# [13] = second compound 0.0316 µM, first compound 0.1 µM
# [14] = second compound 0.0316 µM, first compound 0.316 µM
# [15] = second compound 0.0316 µM, first compound 1 µM
# [16] = second compound 0.0316 µM, first compound 3.16 µM
# [17] = second compound 0.0316 µM, first compound 10 µM
# [18] = second compound 0.1 µM, first compound 0.0316 µM
# [19] = second compound 0.1 µM, first compound 0.1 µM
# [20] = second compound 0.1 µM, first compound 0.316 µM
# [21] = second compound 0.1 µM, first compound 1 µM
# [22] = second compound 0.1 µM, first compound 3.16 µM
# [23] = second compound 0.1 µM, first compound 10 µM
# [24] = second compound 0.316 µM, first compound 0.0316 µM
# [25] = second compound 0.316 µM, first compound 0.1 µM
# [26] = second compound 0.316 µM, first compound 0.316 µM
# [27] = second compound 0.316 µM, first compound 1 µM
# [28] = second compound 0.316 µM, first compound 3.16 µM
# [29] = second compound 0.316 µM, first compound 10 µM
# [30] = second compound 1 µM, first compound 0.0316 µM
# [31] = second compound 1 µM, first compound 0.1 µM
# [32] = second compound 1 µM, first compound 0.316 µM
# [33] = second compound 1 µM, first compound 1 µM
# [34] = second compound 1 µM, first compound 3.16 µM
# [35] = second compound 1 µM, first compound 10 µM
# 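For viability, T/C in this document: 100% = DMSO vehicle control viability.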
structure (smiles),measurement,setting,value
CC(C)(C)c1cnc(CSc2cnc(NC(=O)C3CCNCC3)s2)o1 + CC(C)NCC(C(=O)N1CCN(c2ncnc3c2C(C)CC3O)CC1)c1ccc(Cl)cc1,IC50,[1],0.131 µM
same,IC50,[2],0.109 µM
same,IC50,[3],0.0454 µM
same,IC50,"curve of first compound, second compound 3.16 µM",< 0.00949 µM
same,IC50,"curve of first compound, second compound 10 µM",< 0.00949 µM
same,"viability, T/C","second compound 0.1 µM, first compound 0.00949 µM",101%
same,"viability, T/C","second compound 0.1 µM, first compound 0.03 µM",103%
same,"viability, T/C","second compound 0.1 µM, first compound 0.0949 µM",69.1%
same,"viability, T/C","second compound 0.1 µM, first compound 0.3 µM",1.04%
same,"viability, T/C","second compound 0.1 µM, first compound 0.949 µM",0.63%
same,"viability, T/C","second compound 0.1 µM, first compound 3 µM",0.58%
same,"viability, T/C","second compound 0.316 µM, first compound 0.00949 µM",80.3%
same,"viability, T/C","second compound 0.316 µM, first compound 0.03 µM",82.2%
same,"viability, T/C","second compound 0.316 µM, first compound 0.0949 µM",56.9%
same,"viability, T/C","second compound 0.316 µM, first compound 0.3 µM",0.5%
same,"viability, T/C","second compound 0.316 µM, first compound 0.949 µM",0.5%
same,"viability, T/C","second compound 0.316 µM, first compound 3 µM",0.49%
same,"viability, T/C","second compound 1 µM, first compound 0.00949 µM",56.2%
same,"viability, T/C","second compound 1 µM, first compound 0.03 µM",57.9%
same,"viability, T/C","second compound 1 µM, first compound 0.0949 µM",37.6%
same,"viability, T/C","second compound 1 µM, first compound 0.3 µM",0.39%
same,"viability, T/C","second compound 1 µM, first compound 0.949 µM",0.44%
same,"viability, T/C","second compound 1 µM, first compound 3 µM",0.45%
same,"viability, T/C","second compound 3.16 µM, first compound 0.00949 µM",48%
same,"viability, T/C","second compound 3.16 µM, first compound 0.03 µM",45.8%
same,"viability, T/C","second compound 3.16 µM, first compound 0.0949 µM",28.7%
same,"viability, T/C","second compound 3.16 µM, first compound 0.3 µM",0.18%
same,"viability, T/C","second compound 3.16 µM, first compound 0.949 µM",0.36%
same,"viability, T/C","second compound 3.16 µM, first compound 3 µM",0.34%
same,"viability, T/C","second compound 10 µM, first compound 0.00949 µM",36.6%
same,"viability, T/C","second compound 10 µM, first compound 0.03 µM",38%
same,"viability, T/C","second compound 10 µM, first compound 0.0949 µM",15.1%
same,"viability, T/C","second compound 10 µM, first compound 0.3 µM",0.21%
same,"viability, T/C","second compound 10 µM, first compound 0.949 µM",0.55%
same,"viability, T/C","second compound 10 µM, first compound 3 µM",0.37%
CCCS(=O)(=O)Nc1ccc(F)c(C(=O)c2c[nH]c3ncc(-c4ccc(Cl)cc4)cc23)c1F + CCN1CCN(Cc2ccc(Nc3ncc(F)c(-c4cc(F)c5nc(C)n(C(C)C)c5c4)n3)nc2)CC1,IC50,[4],> 10 µM
same,IC50,[5],> 10 µM
same,IC50,[1],> 10 µM
same,IC50,[2],> 10 µM
same,IC50,[3],> 10 µM
same,"viability, T/C",[6],107%
same,"viability, T/C",[7],105%
same,"viability, T/C",[8],104%
same,"viability, T/C",[9],108%
same,"viability, T/C",[10],98.1%
same,"viability, T/C",[11],97.3%
same,"viability, T/C",[12],81%
same,"viability, T/C",[13],88.7%
same,"viability, T/C",[14],85.6%
same,"viability, T/C",[15],99.5%
same,"viability, T/C",[16],94.2%
same,"viability, T/C",[17],86.9%
same,"viability, T/C",[18],73.4%
same,"viability, T/C",[19],77.8%
same,"viability, T/C",[20],77.2%
same,"viability, T/C",[21],78.5%
same,"viability, T/C",[22],76.6%
same,"viability, T/C",[23],70.8%
same,"viability, T/C",[24],70.6%
same,"viability, T/C",[25],70.2%
same,"viability, T/C",[26],63.8%
same,"viability, T/C",[27],76.1%
same,"viability, T/C",[28],73.1%
same,"viability, T/C",[29],70.4%
same,"viability, T/C",[30],58.9%
same,"viability, T/C",[31],70.9%
same,"viability, T/C",[32],72.8%
same,"viability, T/C",[33],68.3%
same,"viability, T/C",[34],68.3%
same,"viability, T/C",[35],63.2%
Cn1nccc1Nc1nccc(-c2ccn(C(CO)c3ccc(Cl)c(F)c3)c(=O)c2)n1 (stereo unspecified),"viability, T/C",compound 0.0316 µM,99.2% and 102%
same,"viability, T/C",compound 0.1 µM,97.9% and 90.4%
same,"viability, T/C",compound 0.316 µM,98.9% and 92%
same,"viability, T/C",compound 1 µM,83.2% and 93.5%
same,"viability, T/C",compound 3.16 µM,64.7% and 54.9%
same,"viability, T/C",compound 10 µM,34.4% and 29.1%
same,IC50,curve of compound,5.45 µM and 3.93 µM
CC1(C)CCC(CN2CCN(c3ccc(C(=O)NS(=O)(=O)c4ccc(NCC5CCOCC5)c([N+](=O)[O-])c4)c(Oc4cnc5[nH]ccc5c4)c3)CC2)=C(c2ccc(Cl)cc2)C1 + CCN1CCN(Cc2ccc(Nc3ncc(F)c(-c4cc(F)c5nc(C)n(C(C)C)c5c4)n3)nc2)CC1,IC50,[4],5.02 µM
same,IC50,[5],5.02 µM
same,IC50,[1],4.47 µM
same,IC50,[2],3.89 µM
same,IC50,[3],3.56 µM
same,"viability, T/C",[6],100%
same,"viability, T/C",[7],91.6%
same,"viability, T/C",[8],96.6%
same,"viability, T/C",[9],86.9%
same,"viability, T/C",[10],78.4%
same,"viability, T/C",[11],10.2%
same,"viability, T/C",[12],78%
same,"viability, T/C",[13],75.8%
same,"viability, T/C",[14],74.9%
same,"viability, T/C",[15],77.2%
same,"viability, T/C",[16],77.6%
same,"viability, T/C",[17],9.98%
same,"viability, T/C",[18],67.4%
same,"viability, T/C",[19],71.5%
same,"viability, T/C",[20],65.1%
same,"viability, T/C",[21],75.9%
same,"viability, T/C",[22],67.8%
same,"viability, T/C",[23],8.52%
same,"viability, T/C",[24],61.8%
same,"viability, T/C",[25],54.3%
same,"viability, T/C",[26],58.8%
same,"viability, T/C",[27],61.4%
same,"viability, T/C",[28],61.3%
same,"viability, T/C",[29],6.66%
same,"viability, T/C",[30],62.9%
same,"viability, T/C",[31],60.7%
same,"viability, T/C",[32],54.5%
same,"viability, T/C",[33],57.8%
same,"viability, T/C",[34],54.8%
same,"viability, T/C",[35],9.15%
CCCS(=O)(=O)Nc1ccc(F)c(C(=O)c2c[nH]c3ncc(-c4ccc(Cl)cc4)cc23)c1F,"viability, T/C",compound 0.0316 µM,105% and 102%
same,"viability, T/C",compound 0.1 µM,116% and 103%
same,"viability, T/C",compound 0.316 µM,106% and 101%
same,"viability, T/C",compound 1 µM,106% and 98.7%
same,"viability, T/C",compound 3.16 µM,101% and 96.1%
same,"viability, T/C",compound 10 µM,87.3% and 92.8%
same,IC50,curve of compound,> 10 µM
C=CCn1c(=O)c2cnc(Nc3ccc(N4CCN(C)CC4)cc3)nc2n1-c1cccc(C(C)(C)O)n1,"viability, T/C",compound 0.0316 µM,97% and 97.5%
same,"viability, T/C",compound 0.1 µM,106% and 94.9%
same,"viability, T/C",compound 0.316 µM,56.2% and 56.8%
same,"viability, T/C",compound 1 µM,4.15% and 5.89%
same,"viability, T/C",compound 3.16 µM,3.83% and 4.76%
same,"viability, T/C",compound 10 µM,5.49% and 6.6%
same,IC50,curve of compound,0.363 µM and 0.369 µM
CC(C)n1nc(-c2ccc3oc(N)nc3c2)c2c(N)ncnc21 + CCN1CCN(Cc2ccc(Nc3ncc(F)c(-c4cc(F)c5nc(C)n(C(C)C)c5c4)n3)nc2)CC1,IC50,[4],0.00733 µM
same,IC50,[5],0.00458 µM
same,IC50,[1],0.00201 µM
same,IC50,[2],0.00103 µM
same,IC50,[3],0.00117 µM
same,"viability, T/C","second compound 0.01 µM, first compound 0.000316 µM",90.9%
same,"viability, T/C","second compound 0.01 µM, first compound 0.001 µM",77.3%
same,"viability, T/C","second compound 0.01 µM, first compound 0.00316 µM",68.1%
same,"viability, T/C","second compound 0.01 µM, first compound 0.01 µM",45.6%
same,"viability, T/C",[6],21.2%
same,"viability, T/C",[7],16.1%
same,"viability, T/C","second compound 0.0316 µM, first compound 0.000316 µM",68.7%
same,"viability, T/C","second compound 0.0316 µM, first compound 0.001 µM",73.6%
same,"viability, T/C","second compound 0.0316 µM, first compound 0.00316 µM",53.8%
same,"viability, T/C","second compound 0.0316 µM, first compound 0.01 µM",37.1%
same,"viability, T/C",[12],19.8%
same,"viability, T/C",[13],14.8%
same,"viability, T/C","second compound 0.1 µM, first compound 0.000316 µM",58.2%
same,"viability, T/C","second compound 0.1 µM, first compound 0.001 µM",50.3%
same,"viability, T/C","second compound 0.1 µM, first compound 0.00316 µM",49.8%
same,"viability, T/C","second compound 0.1 µM, first compound 0.01 µM",31.4%
same,"viability, T/C",[18],20.7%
same,"viability, T/C",[19],14.6%
same,"viability, T/C","second compound 0.316 µM, first compound 0.000316 µM",59.2%
same,"viability, T/C","second compound 0.316 µM, first compound 0.001 µM",50.1%
same,"viability, T/C","second compound 0.316 µM, first compound 0.00316 µM",39.5%
same,"viability, T/C","second compound 0.316 µM, first compound 0.01 µM",28.5%
same,"viability, T/C",[24],20.3%
same,"viability, T/C",[25],15.2%
same,"viability, T/C","second compound 1 µM, first compound 0.000316 µM",56.9%
same,"viability, T/C","second compound 1 µM, first compound 0.001 µM",50.8%
same,"viability, T/C","second compound 1 µM, first compound 0.00316 µM",46.3%
same,"viability, T/C","second compound 1 µM, first compound 0.01 µM",35.7%
same,"viability, T/C",[30],23.1%
same,"viability, T/C",[31],19.9%
